The text below walks through data of article PMC7332792 (Acta Pharmaceutica Sinica. B, 2020).

A word on the Kd: it is the concentration at which binding is half-saturated. A higher Kd goes with weaker binding.

Bridge positions count the residues as written; N and C are the ends. Ends that are not written are not given here.

One data set addresses T1, human LAG-3 protein (human, UniProt P18627, labeled with Red-NHS647 dye (in the MST assay)).
T1 sequence: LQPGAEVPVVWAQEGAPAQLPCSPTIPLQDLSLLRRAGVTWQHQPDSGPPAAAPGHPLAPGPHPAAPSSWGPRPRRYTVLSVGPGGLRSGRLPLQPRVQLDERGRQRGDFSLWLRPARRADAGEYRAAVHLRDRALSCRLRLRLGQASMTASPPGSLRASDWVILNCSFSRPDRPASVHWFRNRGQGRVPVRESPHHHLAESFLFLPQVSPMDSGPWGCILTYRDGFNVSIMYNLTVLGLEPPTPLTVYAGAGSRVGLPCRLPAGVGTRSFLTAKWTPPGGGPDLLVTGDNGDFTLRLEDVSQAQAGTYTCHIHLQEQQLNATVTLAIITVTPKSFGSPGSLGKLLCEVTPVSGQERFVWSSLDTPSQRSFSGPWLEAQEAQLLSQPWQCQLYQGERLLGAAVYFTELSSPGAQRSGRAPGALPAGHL
As to the kind of experiment: MST.

Regarding `CSCC[C@@H]1NC(=O)[C@@H]2CCCN2C(=O)[C@H](C(C)C)NC(=O)[C@@H](N)CSSC[C@@H](C(=O)O)NC(=O)[C@H](C)NC(=O)[C@H](CCCNC(=N)N)NC(=O)[C@H](Cc2ccc(O)cc2)NC(=O)[C@H]([C@@H](C)O)NC1=O` [C25], the “immune response (immunogenicity) in mice” value (mice with or without CT26 xenograft) is “did not cause significant immune response in mice”. Moreover, the “IgG levels in the blood” value (naïve mice and CT26 tumor bearing mice after 14 days of C25 treatment, ELISA, versus control, n = 5) is recorded as “not significantly different from those in the control group”.

B1: cyclic peptide C19 (peptide)
peptide: CNWMINKEC
modifications: disulfide 1-9
As for B1, the Kd in the data set with human LAG-3 protein was 5.05 µM. This counts as single-digit micromolar.

B2: cyclic peptide C17 (peptide)
peptide: CNMHTPMVC
modifications: disulfide 1-9
In turn, B2 registered a Kd with human LAG-3 protein of 1.83 µM.
